# According to PubChem BioAssay (NCI):
#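 Following 48 hours of exposure in 96-well plates, responses at five concentrations were used to interpolate endpoints linearly. Abbreviation: GI50, concentration required for 50% inhibition of growth. TGI is the concentration that stops growth completely.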
# What was measured:
# Experiment in all cases: growth of human tumour cells (NCI), 48 h
# [1] = tested on: COLO 205 colon
# [2] = tested on: MDA-MB-435
# [3] = tested on: SF-295 CNS
# [4] = tested on: A498 renal
# [5] = tested on: MCF7 breast
# [6] = tested on: UO-31 renal
# [7] = tested on: U251 CNS
# [8] = tested on: SK-MEL-5 melanoma
# [9] = tested on: HOP-92 NSCLC
# [10] = tested on: RPMI-8226 leukemia
# [11] = tested on: A549 NSCLC
# [12] = tested on: MALME-3M melanoma
# [13] = tested on: NCI/ADR-RES ovarian
# [14] = tested on: 786-0 renal
# [15] = tested on: CCRF-CEM leukemia
# [16] = tested on: IGROV1 ovarian
# [17] = tested on: M14 melanoma
# [18] = tested on: SNB-19 CNS
# [19] = tested on: UACC-257 melanoma
# [20] = tested on: HCT-116 colon
# [21] = tested on: CAKI-1 renal
# [22] = tested on: SK-OV-3 ovarian
# [23] = tested on: EKVX NSCLC
# [24] = tested on: HL-60(TB) leukemia
# [25] = tested on: UACC-62 melanoma
# [26] = tested on: SR leukemia
# [27] = tested on: T-47D breast
# [28] = tested on: HCT-15 colon
# [29] = tested on: SN12C renal
# [30] = tested on: SK-MEL-2 melanoma
# [31] = tested on: ACHN renal
# [32] = tested on: HOP-62 NSCLC
# [33] = tested on: SNB-75 CNS
# [34] = tested on: NCI-H23 lung
# [35] = tested on: NCI-H522 lung
# [36] = tested on: TK-10 renal
# [37] = tested on: OVCAR-5 ovarian
# [38] = tested on: DU-145 prostate
# [39] = tested on: NCI-H226 lung
# [40] = tested on: OVCAR-3 ovarian
# [41] = tested on: SW-620 colon
# [42] = tested on: SF-268 CNS
# [43] = tested on: HT29 colon
# [44] = tested on: NCI-H460 lung
# [45] = tested on: OVCAR-4 ovarian
# [46] = tested on: MDA-MB-231 breast
# [47] = tested on: KM12 colon
# [48] = tested on: OVCAR-8 ovarian
# [49] = tested on: SF-539 CNS
# [50] = tested on: HCC-2998 colon
# [51] = tested on: LOX IMVI melanoma
# [52] = tested on: SK-MEL-28 melanoma
# [53] = tested on: HS 578T breast
# [54] = tested on: MOLT-4 leukemia
# [55] = tested on: BT-549 breast
# [56] = tested on: K-562 leukemia
smiles,measurement,setting,value
CCNC(=O)N1CCc2c(Cl)c3c(c(OC)c2[C@@H]1[C@H]1OCc2c1ccc(OC)c2OC)OCCO3,GI50,[1],3.26 µM
same,TGI,[1],10.9 µM
same,GI50,[2],1.16 µM
same,TGI,[2],2.83 µM
same,GI50,[3],1.86 µM
same,TGI,[3],6.51 µM
same,GI50,[4],2.6 µM
same,TGI,[4],7.91 µM
same,GI50,[5],2.72 µM
same,TGI,[5],> 100 µM
same,GI50,[6],5.52 µM
same,TGI,[6],> 100 µM
same,GI50,[7],3.75 µM
same,TGI,[7],37.5 µM
same,GI50,[8],4.59 µM
same,TGI,[8],21.1 µM
same,GI50,[9],11.7 µM
same,TGI,[9],90 µM
same,GI50,[10],4.41 µM
same,TGI,[10],> 100 µM
same,GI50,[11],4.07 µM
same,TGI,[11],> 100 µM
same,GI50,[12],6.27 µM
same,TGI,[12],> 100 µM
same,GI50,[13],3.28 µM
same,TGI,[13],> 100 µM
same,GI50,[14],4.24 µM
same,TGI,[14],> 100 µM
same,GI50,[15],3.82 µM
same,TGI,[15],> 100 µM
same,GI50,[16],3.6 µM
same,TGI,[16],> 100 µM
same,GI50,[17],2.12 µM
same,TGI,[17],5.39 µM
same,GI50,[18],4.36 µM
same,TGI,[18],> 100 µM
same,GI50,[19],9.63 µM
same,TGI,[19],> 100 µM
same,GI50,[20],3.46 µM
same,TGI,[20],> 100 µM
same,GI50,[21],4.2 µM
same,TGI,[21],> 100 µM
same,GI50,[22],4.58 µM
same,TGI,[22],> 100 µM
same,GI50,[23],4.18 µM
same,TGI,[23],> 100 µM
same,GI50,[24],2.49 µM
same,TGI,[24],6.43 µM
same,GI50,[25],5.2 µM
same,TGI,[25],> 100 µM
same,GI50,[26],4.22 µM
same,TGI,[26],> 100 µM
same,GI50,[27],4.26 µM
same,TGI,[27],> 100 µM
same,GI50,[28],2.72 µM
same,TGI,[28],> 100 µM
same,GI50,[29],7.1 µM
same,TGI,[29],> 100 µM
same,GI50,[30],6.01 µM
same,TGI,[30],> 100 µM
same,GI50,[31],6.5 µM
same,TGI,[31],> 100 µM
same,GI50,[32],3.69 µM
same,TGI,[32],> 100 µM
same,GI50,[33],2.2 µM
same,TGI,[33],7.07 µM
same,GI50,[34],4.59 µM
same,TGI,[34],> 100 µM
same,GI50,[35],1.87 µM
same,TGI,[35],6.66 µM
same,GI50,[36],13.5 µM
same,TGI,[36],> 100 µM
same,GI50,[37],3.93 µM
same,TGI,[37],> 100 µM
same,GI50,[38],4.2 µM
same,TGI,[38],> 100 µM
same,GI50,[39],4.44 µM
same,TGI,[39],> 100 µM
same,GI50,[40],2.31 µM
same,TGI,[40],5.37 µM
same,GI50,[41],3.86 µM
same,TGI,[41],> 100 µM
same,GI50,[42],6.02 µM
same,TGI,[42],> 100 µM
same,GI50,[43],3.38 µM
same,TGI,[43],25 µM
same,GI50,[44],3.47 µM
same,TGI,[44],13.9 µM
same,GI50,[45],40.6 µM
same,TGI,[45],> 100 µM
same,GI50,[46],4.95 µM
same,TGI,[46],42.3 µM
same,GI50,[47],3.07 µM
same,TGI,[47],16.5 µM
same,GI50,[48],4.17 µM
same,TGI,[48],> 100 µM
same,GI50,[49],2.35 µM
same,TGI,[49],6.06 µM
same,GI50,[50],4.19 µM
same,TGI,[50],> 100 µM
same,GI50,[51],4.64 µM
same,TGI,[51],27.2 µM
same,GI50,[52],16.5 µM
same,TGI,[52],> 100 µM
same,GI50,[53],2.57 µM
same,TGI,[53],9.13 µM
same,GI50,[54],4.95 µM
same,TGI,[54],> 100 µM
same,GI50,[55],6.84 µM
same,TGI,[55],> 100 µM
same,GI50,[56],3.48 µM
same,TGI,[56],> 100 µM
